From the supplement of paper PMC10307832

How the values were obtained:
Experiment in all cases: relative viability (nuclei count vs DMSO), 5 days (fraction); higher = more cells survive
[1] = compound: Cn1nnc2c(C(N)=O)ncn2c1=O [Temozolomide] + Cc1cc(Nc2cc(N3CCN(C)CC3)nc(Sc3ccc(NC(=O)C4CC4)cc3)n2)n[nH]1 [Tozasertib] (partner 0.1 µM)
Outline: (§1)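 Medians of duplicate plates are given as relative viability. That measure is the nuclei count in treated wells divided by the count in vehicle wells. Counts were taken on 4× images of lung cancer cell lines in 1536-well plates, 5 days after pin-tool dosing the day after seeding with one drug alone or a fixed anchor-drug dose plus five library-drug doses (not always all listed) in √10 steps.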

[2] = compound: Cn1nnc2c(C(N)=O)ncn2c1=O [Temozolomide] + Nc1nc2[nH]cc(CCc3ccc(C(=O)N[C@@H](CCC(=O)O)C(=O)O)cc3)c2c(=O)[nH]1 [Pemetrexed] (partner 0.2 µM)
Outline: as §1

[3] = compound: Cn1nnc2c(C(N)=O)ncn2c1=O [Temozolomide] + COc1cc2c(Oc3ccc(NC(=O)C4(C(=O)Nc5ccc(F)cc5)CC4)cc3F)ccnc2cc1OCCCN1CCOCC1 [Foretinib] (partner 0.25 µM)
Outline: as §1

[4] = compound: C[C@@H](C(=O)N[C@@H](C1CCCCC1)C(=O)N2CCC[C@H]2C(=O)N[C@@H]3[C@@H](CC4=CC=CC=C34)OCC#CC#CCO[C@@H]5CC6=CC=CC=C6[C@@H]5NC(=O)[C@@H]7CCCN7C(=O)[C@H](C8CCCCC8)NC(=O)[C@H](C)NC)NC [AZD5582] + Nc1nc2[nH]cc(CCc3ccc(C(=O)N[C@@H](CCC(=O)O)C(=O)O)cc3)c2c(=O)[nH]1 [Pemetrexed] (partner 0.2 µM)
Outline: as §1

| Cell Line | relative viability ([1]; first compound 0.6325 µM) | relative viability ([1]; first compound 2 µM) | relative viability ([1]; first compound 6.325 µM) | relative viability ([1]; first compound 20 µM) | relative viability ([2]; first compound 0.6325 µM) | relative viability ([2]; first compound 2 µM) | relative viability ([2]; first compound 6.325 µM) | relative viability ([2]; first compound 20 µM) | relative viability ([3]; first compound 0.6325 µM) | relative viability ([3]; first compound 2 µM) | relative viability ([3]; first compound 6.325 µM) | relative viability ([3]; first compound 20 µM) | relative viability ([4]; first compound 0.001581 µM) | relative viability ([4]; first compound 0.005 µM) | relative viability ([4]; first compound 0.01581 µM) | relative viability ([4]; first compound 0.05 µM) | relative viability ([1]; first compound 0.2 µM) | relative viability ([2]; first compound 0.2 µM) | relative viability ([3]; first compound 0.2 µM) |
| --- | --- | --- | --- | --- | --- | --- | --- | --- | --- | --- | --- | --- | --- | --- | --- | --- | --- | --- | --- |
| H3255 | 0.534 | 0.613 | 0.532 | 0.17 | 0.544 | 0.59 | 0.543 | 0.336 | 0.845 | 1.03 | 0.507 | 0.201 | 0.492 | 0.563 | 0.512 | 0.573 |  |  |  |
| NCI-H1437 | 0.415 | 0.422 | 0.422 | 0.415 | 0.317 | 0.376 | 0.316 | 0.277 | 1.25 | 1.27 | 1.26 | 1.31 | 0.337 | 0.294 | 0.263 | 0.326 | 0.422 | 0.31 | 1.27 |
| NCI-H2347 | 0.552 | 0.579 | 0.544 | 0.576 | 0.447 | 0.429 | 0.426 | 0.461 | 1.03 | 1.42 | 0.773 | 0.982 | 0.369 | 0.441 | 0.41 | 0.402 | 0.496 | 0.466 | 1.11 |
| SK-LU-1 | 0.326 | 0.335 | 0.273 | 0.235 | 1.01 | 0.875 | 0.495 | 0.522 | 0.849 | 0.585 | 0.444 | 0.342 | 0.73 | 0.5 | 0.978 | 0.285 | 0.354 | 1.06 | 0.954 |
| NCI-H2087 | 0.219 | 0.292 | 0.286 | 0.25 | 0.667 | 0.663 | 0.676 | 0.696 | 1.16 | 1.19 | 1.23 | 1.04 | 0.656 | 0.665 | 0.662 | 0.656 | 0.273 | 0.624 | 1.23 |
| NCI-H520 | 0.441 | 0.462 | 0.428 | 0.426 | 0.595 | 0.711 | 0.631 | 0.74 | 0.842 | 0.704 | 0.689 | 0.769 | 0.66 | 0.755 | 0.699 | 0.691 | 0.474 | 0.723 | 0.908 |
| NCI-H1734 | 0.251 | 0.242 | 0.284 | 0.278 | 0.422 | 0.431 | 0.394 | 0.386 | 0.929 | 0.959 | 0.754 | 0.859 | 0.406 | 0.407 | 0.415 | 0.437 | 0.305 | 0.398 | 0.874 |
| A-427 | 0.206 | 0.219 | 0.152 | 0.157 | 0.919 | 0.957 | 0.783 | 0.549 | 0.981 | 1.03 | 0.66 | 0.486 | 0.931 | 0.92 | 0.978 | 0.89 | 0.201 | 1.01 | 0.992 |
